Legend:
[1] = octanol-water partition coefficient (Log K ow), Table 1; cited from earlier work
[2] = assay type: physicochemical; conditions: classified from Log P
Excerpt: As used herein, a “partition coefficient” is defined as the ratio of concentrations of an un-ionized compound between solutions of water and octanol. To measure the partition coefficient of ionizable solutes, the pH of the aqueous phase is adjusted such that the predominant form of the compound is un-ionized. The logarithm of the ratio of the concentrations of the un-ionized solute in the solvents is referred to herein as log P or log K ow.
As noted herein, the octanol-water partition coefficient may be used to identify the cuticular penetration of a particular active ingredient. One factor in the relative speed through which any insecticide acts is the insecticide's ability to cross the insect cuticle. A determining factor for cuticle penetration is Log K ow, also known as Log P. Log K ow (Log P) is the octanol-water partition coefficient for a neutral molecule. Log P is used hereinfurther, but, as noted above, the term is synonymous with Log K ow. As previously noted, the cuticular penetration of any particular active ingredient as against a plant cuticle is not indicative of that same active ingredient's ability to penetrate an insect cuticle.
The cuticular penetration of a compound is classified as “INTERMEDIATE” when the Log P value is between about 2.0 and about 4.0.

[3] = tested on: Musca domestica, resistant strain Reichswald; assay: Efficacy of formulations on surfaces (glazed/unglazed tiles), house flies, continuous exposure; assay type: in vivo; conditions: Table 115; 0.002% = 1 mg DTM/m^2 on glazed tiles; EC formulation; continuous exposure
Procedure: (§1) All surfaces were provided with talcum-coated glass rings (diameter 9.5 cm, height 5.5 cm) one day later.
(§2) The test insects were anesthetized with CO2, 20 individuals were placed onto the treated surfaces and the glass ring was covered with wire gauze ring. […]
(§3) Each test consisted of at least one replicate and any additional replicates are noted.
(§4) Test Insects: House flies (Musca domestica) of both sexes, susceptible strain WHO(N) and resistant strain Reichswald
(§5) Evaluation: Mortality was evaluated cumulatively at different times. […]
(§6) Test Insects: Culex quinquefasciatus (adults) (3 minutes exposure time according to USDA Petri Dish Method), Musca domestica (adults), susceptible and resistant strain, Blattella germanica (males), Cimex lectularius (adults) (all: continuous exposure time)
(§7) Application: The EC formulation (diluted with water 1:9) were applied as 0.85 ml solutions onto glazed tiles (15 cm×15 cm)

[4] = tested on: Musca domestica, susceptible strain WHO(N); assay: as above; assay type: in vivo; conditions: Table 114; 0.002% = 1 mg DTM/m^2 on glazed tiles; EC formulation; continuous exposure
Procedure: A flat fan nozzle (type SS 8003-E) in a spray cabin was moved automatically over a defined area where the solutions were sprayed very evenly onto the surfaces. The formulation was mixed with water to give a concentration which corresponded to the desired quantity of a.i./m^2. A defined quantity of this solution was sprayed onto the area (nominal 350 liter/ha=0.77 ml per surface).
as §1
The test insects were anesthetized with CO2, 20 individuals were placed onto the treated surfaces and the glass ring was covered with wire gauze ring.
Knock down was determined after 15 and 30′, 1, 2, 4 and 6 hours, mortality after 1 day exposure.
as §3, §4, §5, §6, §7
(§8) Evaluation: Knock down after 15, and 30 minutes, 1, 2, 3, 4, 6 and 24 hours (mortality)
(§9) Test Insects: Culex quinquefasciatus (adults, susceptible) (3 minutes exposure time according to USDA Petri Dish Method), Musca domestica (adults, susceptible and resistant), Blattella germanica (males, susceptible) (both: continuous exposure time)
(§10) Formulations: Insecticide with or without 10% Compound A (as EC), to be diluted with water (1 part formulation+9 parts water)
Evaluation: Knock down after 3, 9 (mosquitoes only), 15, and 30 minutes, 1, 2, 3, 4 and 24 hours (mortality) […]

[5] = tested on: Cimex lectularius (adults); assay: Efficacy on glazed tiles (acetone solutions or EC formulations), continuous exposure; assay type: in vivo; conditions: on tiles, insecticide alone (imidacloprid 50 mg/m^2, Bendiocarb 50 mg/m^2, Ethiprole 10 mg/m^2, DTM 1 mg/m^2), no Compound A
Procedure: as §6, §7, §8
Test Insects: Culex quinquefasciatus (adults) (3 minutes exposure time according to USDA Petri Dish Method), Cimex lectularius (adults), Acheta domesticus (middle nymphs) (both: continuous exposure time)
Application: The active ingredients were applied as 1 ml acetone solutions onto glazed tiles (15 cm×15 cm)
(§11) Evaluation: Knock down after 3, 9 (mosquitoes only), 15, and 30 minutes, 1, 2, 3, 4 and 24 hours (mortality)
Test Insects: Culex quinquefasciatus (adults) (3 minutes exposure time according to USDA Petri Dish Method), Cimex lectularius (adults), (continuous exposure time)
Test Insects: Cimex lectularius, Culex quinquefasciatus, Musca domestica (all adults, susceptible strains)
Application: The active ingredients were applied as 1 ml acetone solutions onto glazed tiles (15 cm×15 cm), continuous exposure time

[6] = tested on: Blattella germanica (males, susceptible); assay: Efficacy of EC formulations on glazed/unglazed tiles, continuous exposure; assay type: in vivo; conditions: 0.002% = 1 mg DTM/m^2 on glazed tiles, EC formulation
Procedure: as §1, §2
Each test consisted of at least one replicate and any additional replicates are noted. […]
as §9, §10
Application: 1 ml of the diluted formulations was applied by pipette onto glazed tiles (15×15 cm)
as §11

[7] = tested on: tropical house mosquito Culex quinquefasciatus (adults, 3 days old); assay: Efficacy of formulations on surfaces (glazed/unglazed tiles, plywood), ten 3 day old mosquitoes, 3 min exposure; assay type: in vivo; conditions: 0.002% = 1 mg DTM/m^2 on glazed tiles; EC formulation; 3 minutes exposure
Procedure: The ingredients were diluted in acetone to give a concentration which corresponds to the desired quantity of a.i./m^2. A 1 ml quantity of the solution was applied by pipette onto the 15 cm×15 cm surfaces without treating the outer edge of 1 cm.
(§12) Ten 3 day old Culex quinquefasciatus mosquitoes were exposed to each treatment for 3 minutes under a perforated petri dish, and then a clean untreated white paper index card was moved between treated surface and petri dish. A water-soaked cotton pad was applied immediately after.
Each test consisted of three replicates (three batches of ten mosquitoes were exposed for three minutes to the same surface, each one hour later), of which the mean values are calculated.
The test insects were Culex quinquefasciatus (adults, 3 days old). The compositions were evaluated for their ability to provide effective knock down after 3, 9, 15, and 30 minutes, 1, 2, 3, 4 and 24 hours (mortality). The experiments were performed in triplicate on glazed tile, but not repeated on wood.
Test Insects are Culex quinquefasciatus (adults, 3 days old). The Application provides the technical compounds were dissolved in acetone and applied as 1 ml solutions onto glazed tiles (15 cm×15 cm). An evaluation is provided at knock down after 3, 9, 15, and 30 minutes, 1, 2, 3, 4 and 24 hours (mortality). There are 3 replicates.
Test Insects: Culex quinquefasciatus (adults, 3 days old)
Application: The technical compounds were dissolved in acetone and applied as 1 ml solutions onto glazed tiles (15 cm×15 cm).
Evaluation: Knock down after 3, 9, 15, and 30 minutes, 1, 2, 3, 4 and 24 hours (mortality) […]
Application: The active ingredients were applied as 1 ml acetone solutions onto glazed tiles (15 cm×15 cm) […]
as §12, with “For the mosquitoes, the USDA Petri Dish Method is used. Ten” for “Ten”, “are” for “were”, “dish” for “dish,”, “is” for “was”, “after. […]” for “after.”

N#Cc1ccc(CC(=NNC(=O)Nc2ccc(OC(F)(F)F)cc2)c2cccc(C(F)(F)F)c2)cc1 (mixture of isomers) [metaflumizone]
Log P [1]: 5.1 | Likelihood of Direct Insect Cuticular Penetration [2]: Fast (classified as “FAST” when it has a Log P value of about >4.0)

pyrethrin
Log P [1]: 4.3 | Likelihood of Direct Insect Cuticular Penetration [2]: Fast (classified as “FAST” when it has a Log P value of about >4.0)

CN/C(=N\[N+](=O)[O-])NCc1cnc(Cl)s1 [clothianidin]
Log P [1]: 0.7 | Likelihood of Direct Insect Cuticular Penetration [2]: Slow (classified as “SLOW” when the compound has a Log P value of about <2.0)

COC(C)(C)CCC[C@H](C)C/C=C/C(C)=C/C(=O)OC(C)C (racemic) [methoprene]
Log P [1]: >6.0 | Likelihood of Direct Insect Cuticular Penetration [2]: Fast (classified as “FAST” when it has a Log P value of about >4.0)

CCOC(=O)NCCOc1ccc(Oc2ccccc2)cc1 [fenoxycarb]
Log P [1]: 4.1 | Likelihood of Direct Insect Cuticular Penetration [2]: Fast (classified as “FAST” when it has a Log P value of about >4.0)

COC(=O)N(C(=O)N1CO[C@@]2(C(=O)OC)Cc3cc(Cl)ccc3C2=N1)c1ccc(OC(F)(F)F)cc1 [indoxacarb]
Log P [1]: 4.6 | Likelihood of Direct Insect Cuticular Penetration [2]: Fast (classified as “FAST” when it has a Log P value of about >4.0)

O=C(NC(=O)c1ccccc1Cl)Nc1ccc(OC(F)(F)F)cc1 [triflumuron]
Log P [1]: 4.9 | Likelihood of Direct Insect Cuticular Penetration [2]: Fast (classified as “FAST” when it has a Log P value of about >4.0)

O=C(NC(=O)c1c(F)cccc1F)Nc1cc(Cl)c(OC(F)(F)C(F)F)c(Cl)c1 [hexaflumuron]
Log P [1]: 5.6 | Likelihood of Direct Insect Cuticular Penetration [2]: Fast (classified as “FAST” when it has a Log P value of about >4.0)

CCOC(=O)CC(SP(=S)(OC)OC)C(=O)OCC (stereo not shown) [malathion]
Log P [1]: 2.7 | Likelihood of Direct Insect Cuticular Penetration [2]: Intermediate (classified as “INTERMEDIATE” when the Log P value is between about 2.0 and about 4.0)

N#C/N=C1\SCCN1Cc1ccc(Cl)nc1 [thiacloprid]
Log P [1]: 1.3 | Likelihood of Direct Insect Cuticular Penetration [2]: Slow (classified as “SLOW” when the compound has a Log P value of about <2.0)

abamectin
Log P [1]: 4.4 | Likelihood of Direct Insect Cuticular Penetration [2]: Fast (classified as “FAST” when it has a Log P value of about >4.0)

CN1COCN(Cc2cnc(Cl)s2)/C1=N\[N+](=O)[O-] [thiamethoxam]
Log P [1]: 0.1 | Likelihood of Direct Insect Cuticular Penetration [2]: Slow (classified as “SLOW” when the compound has a Log P value of about <2.0)

O=C(NC(=O)c1c(F)cccc1F)Nc1cc(Cl)c(OC(F)(F)C(F)C(F)(F)F)c(Cl)c1F (stereo not shown) [noviflumuron]
Log P [1]: 4.9 | Likelihood of Direct Insect Cuticular Penetration [2]: Fast (classified as “FAST” when it has a Log P value of about >4.0)

spiromesifen
Log P [1]: 4.6 | Likelihood of Direct Insect Cuticular Penetration [2]: Fast (classified as “FAST” when it has a Log P value of about >4.0)

CC(COc1ccc(Oc2ccccc2)cc1)Oc1ccccn1 (stereo not shown) [pyriproxifen]
Log P [1]: 5.4 | Likelihood of Direct Insect Cuticular Penetration [2]: Fast (classified as “FAST” when it has a Log P value of about >4.0)

CC1(C)[C@H](C(=O)O[C@H](C#N)c2cccc(Oc3ccccc3)c2)[C@@H]1C=C(Br)Br [DTM]
% KD and Mortality 15′ [3]: 0% | % KD and Mortality 30′ [3]: 0% | % KD and Mortality 1 h [3]: 0% | % KD and Mortality 2 h [3]: 0% | % KD and Mortality 3 h [3]: 0% | % KD and Mortality 4 h [3]: 0% | % KD and Mortality 6 h [3]: 0% | % KD and Mortality 24 h [3]: 5% | % KD and Mortality 15′ [4]: 10% | % KD and Mortality 30′ [4]: 85% | % KD and Mortality 1 h [4]: 95% | % KD and Mortality 2 h [4]: 100% | % KD and Mortality 3 h [4]: 100% | % KD and Mortality 4 h [4]: 100% | % KD and Mortality 6 h [4]: 100% | % KD and Mortality 24 h [4]: 100% | % KD and Mortality ([5]; 15′): 0% | % KD and Mortality ([5]; 30′): 0% | % KD and Mortality ([5]; 1 h): 0% | % KD and Mortality ([5]; 2 h): 10% | % KD and Mortality ([5]; 3 h): 80% | % KD and Mortality ([5]; 4 h): 100% | % KD and Mortality ([5]; 6 h): 100% | % KD and Mortality ([5]; 24 h): 100% | % KD and Mortality 15′ [6]: 0% | % KD and Mortality 30′ [6]: 40% | % KD and Mortality 1 h [6]: 100% | % KD and Mortality 2 h [6]: 100% | % KD and Mortality 3 h [6]: 100% | % KD and Mortality 4 h [6]: 100% | % KD and Mortality 6 h [6]: 100% | % KD and Mortality 24 h [6]: 100% | % KD and Mortality 15′ [7]: 0% | % KD and Mortality 30′ [7]: 0% | % KD and Mortality 1 h [7]: 10% | % KD and Mortality 2 h [7]: 10% | % KD and Mortality 3 h [7]: 10% | % KD and Mortality 4 h [7]: 10% | % KD and Mortality 6 h [7]: 20% | % KD and Mortality 24 h [7]: 80%
